Laboratory results taken from US9650339B2, “Inhibitors of histone demethylases” (Gilead Sciences, Inc., priority 2013, dated 2017).

Tests used:
[1] = biological target: T1, KDM3B (JMJD1B) (Homo sapiens, UniProt Q7LBC6); assay: Histone lysine demethylase AlphaLISA assay, KDM3B; type: biochemical; settings: read-out: KDM3B HDME Inhibition IC50
T1 construct: 842-1761; host or cells: Bac (baculovirus system)
T1 sequence (Q7LBC6 842-1761): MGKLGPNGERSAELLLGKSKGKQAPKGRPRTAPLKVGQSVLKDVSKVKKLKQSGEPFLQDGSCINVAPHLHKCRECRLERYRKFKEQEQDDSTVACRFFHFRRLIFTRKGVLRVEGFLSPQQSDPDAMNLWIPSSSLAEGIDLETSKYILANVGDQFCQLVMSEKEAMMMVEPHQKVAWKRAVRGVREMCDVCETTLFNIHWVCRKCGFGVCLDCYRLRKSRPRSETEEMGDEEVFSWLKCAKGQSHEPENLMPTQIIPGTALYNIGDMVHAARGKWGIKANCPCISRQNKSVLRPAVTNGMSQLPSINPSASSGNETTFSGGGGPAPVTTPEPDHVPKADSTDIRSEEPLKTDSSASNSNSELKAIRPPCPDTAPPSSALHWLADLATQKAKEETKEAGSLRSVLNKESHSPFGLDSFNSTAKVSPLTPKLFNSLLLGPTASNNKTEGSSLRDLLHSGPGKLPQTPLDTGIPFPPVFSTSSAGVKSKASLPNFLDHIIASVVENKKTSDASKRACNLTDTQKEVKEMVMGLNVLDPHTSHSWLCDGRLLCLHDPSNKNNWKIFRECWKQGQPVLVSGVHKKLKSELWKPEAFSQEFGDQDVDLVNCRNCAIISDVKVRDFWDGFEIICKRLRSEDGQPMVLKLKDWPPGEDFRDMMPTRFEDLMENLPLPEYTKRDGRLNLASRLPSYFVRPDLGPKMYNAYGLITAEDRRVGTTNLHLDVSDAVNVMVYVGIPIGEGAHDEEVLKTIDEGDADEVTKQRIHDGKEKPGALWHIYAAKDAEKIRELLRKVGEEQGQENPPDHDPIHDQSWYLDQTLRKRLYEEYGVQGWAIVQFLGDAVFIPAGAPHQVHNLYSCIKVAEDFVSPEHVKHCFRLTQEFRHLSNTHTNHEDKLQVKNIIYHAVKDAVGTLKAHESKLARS
Method: (§1) Assays are performed analogously to the protocol described by PerkinElmer (Roy et al. PerkinElmer Technical Note: AlphaLISA #12, April 2011)
(§2) Enzymes are dissolved in enzyme buffer and incubated for 10 min before being added to 3% DMSO solutions of compounds in enzyme buffer. Incubated for another 10 minutes, before substrate solution is added and the reaction mixture is incubated at room temperature. 10 μL acceptor beads, suspended in Epigenetic Buffer (Perkin Elmer AL008) from stock, are added and the suspension is incubated in the dark at room temperature, before a suspension of streptavidin donor beads (Perkin Elmer 6760002) in Epigenetic Buffer is added. After incubation at room temperature in the dark the plates are read. […]
(§3) BK9M2: Biotin-ARTKQTAR(KMe2)STGGKAPRKQ-NH2 (AnaSpec 64359) […]
(§4) Substrate Solution: Substrate, 25 μM L-Asc, and 10 μM α-KG in Buffer A.

[2] = biological target: T2, KDM3A (JMJD1A) (Homo sapiens, UniProt Q9Y4C1); assay: Histone lysine demethylase AlphaLISA assay, KDM3A; type: biochemical; settings: read-out: KDM3 A HDME Inhibition IC50
T2 construct: 2-end; purchased BPS Bioscience, US; host or cells: Bac (baculovirus system)
T2 sequence (Q9Y4C1 2-1321 limits assumed): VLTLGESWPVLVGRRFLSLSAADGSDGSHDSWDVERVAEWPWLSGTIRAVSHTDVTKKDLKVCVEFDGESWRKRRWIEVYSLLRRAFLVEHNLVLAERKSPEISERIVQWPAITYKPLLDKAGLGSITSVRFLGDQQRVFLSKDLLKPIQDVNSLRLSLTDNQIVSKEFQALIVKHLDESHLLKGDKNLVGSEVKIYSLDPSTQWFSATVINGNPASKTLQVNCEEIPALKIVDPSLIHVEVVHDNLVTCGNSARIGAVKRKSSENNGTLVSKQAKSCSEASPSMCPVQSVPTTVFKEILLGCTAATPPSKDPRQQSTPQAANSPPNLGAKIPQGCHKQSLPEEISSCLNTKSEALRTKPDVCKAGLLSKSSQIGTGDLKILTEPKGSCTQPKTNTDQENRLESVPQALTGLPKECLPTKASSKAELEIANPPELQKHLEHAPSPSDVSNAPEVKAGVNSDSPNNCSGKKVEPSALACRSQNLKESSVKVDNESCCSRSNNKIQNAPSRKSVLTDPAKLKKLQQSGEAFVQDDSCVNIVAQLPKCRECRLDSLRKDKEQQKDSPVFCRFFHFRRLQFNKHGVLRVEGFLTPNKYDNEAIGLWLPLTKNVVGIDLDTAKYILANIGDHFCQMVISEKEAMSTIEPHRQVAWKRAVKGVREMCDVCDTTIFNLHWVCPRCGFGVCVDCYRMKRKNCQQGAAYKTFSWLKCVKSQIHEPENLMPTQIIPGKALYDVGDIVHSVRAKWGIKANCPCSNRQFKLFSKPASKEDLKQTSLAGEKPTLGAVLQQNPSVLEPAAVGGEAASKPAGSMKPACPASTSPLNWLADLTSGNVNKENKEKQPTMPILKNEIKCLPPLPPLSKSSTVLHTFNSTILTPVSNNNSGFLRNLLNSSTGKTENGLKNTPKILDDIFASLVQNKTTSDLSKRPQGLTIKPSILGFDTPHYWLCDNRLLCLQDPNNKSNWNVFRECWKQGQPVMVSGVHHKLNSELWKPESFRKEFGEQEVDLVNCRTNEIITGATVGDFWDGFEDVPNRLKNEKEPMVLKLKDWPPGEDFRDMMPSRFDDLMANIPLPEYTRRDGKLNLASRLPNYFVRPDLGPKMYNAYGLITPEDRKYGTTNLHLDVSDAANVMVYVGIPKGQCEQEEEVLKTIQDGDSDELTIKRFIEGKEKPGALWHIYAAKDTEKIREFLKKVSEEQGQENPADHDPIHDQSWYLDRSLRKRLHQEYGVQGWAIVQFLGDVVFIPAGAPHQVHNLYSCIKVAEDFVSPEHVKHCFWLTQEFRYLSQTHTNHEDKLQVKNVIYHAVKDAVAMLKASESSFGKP
Method: as §1, §2, §3, §4

Compound	IC50 [1]	IC50 [2]
C#CCN(C)C(=O)CNCc1cc(/C=N/C2CC2)ccn1 [Compound 56, 2-[({4-[N-cyclopropyl-carboximidoyl]-pyridin-2-yl}methyl)amino]-N-methyl-N-(prop-2-yn-1-yl)acetamide]	> 2.5 µM	> 2.5 µM
CCN(CC)C(=O)CNCc1cc(/C=N/CCC2CCCCC2)ccn1 [Compound 57, 2-[({4-[[(2-cyclohexylethyl)imino]-methyl]pyridin-2-yl}methyl)amino]-N,N-diethylacetamide]	> 2.5 µM	> 2.5 µM
CCCCCCCC/N=C/c1ccnc(CNCC(=O)N(CC)CC)c1 [Compound 58, N,N-diethyl-2-[({4-[(octylimino)methyl]-pyridin-2-yl}methyl)amino]-acetamide]	> 2.5 µM	> 2.5 µM
CCN(CC)CCCCNCc1cc(/C=N/CCOC)ccn1 [Compound 60, [4-(diethylamino)butyl]-({4-[[(2-methoxyethyl)imino]-methyl]pyridin-2-yl}methyl)amine]	> 2.5 µM	> 2.5 µM
CCN(CC)CCCCNCc1cc(/C=N/CCO)ccn1 [Compound 61, 2-[{[2-({[4-(diethylamino)-butyl]amino}-methyl)pyridin-4-yl]methylidene}-amino]ethan-1-ol]	> 2.5 µM	> 2.5 µM
CCN(CC)CCCCNCc1cc(/C=N/CC(F)(F)C(F)(F)F)ccn1 [Compound 62, {[2-({[4-(diethylamino)-butyl]amino}methyl)pyridin-4-yl]methylidene} (2,2,3,3,3-pentafluoropropyl)-amine]	> 2.5 µM	> 2.5 µM
CON=Cc1ccnc(CNCCCN(C)C)c1 [Compound 64, [3-(dimethylamino)-propyl]({4-[(methoxyimino)-methyl]pyridin-2-yl}methyl)amine]	> 2.5 µM	> 2.5 µM
CCN(CC)CCCCNCc1cc(C2NCCN2C)ccn1 (centres unmarked) [Compound 65, [4-(diethylamino)-butyl]({[4-(1-methylimidazolidin-2-yl)pyridin-2-yl]methyl})amine]	> 2.5 µM	> 2.5 µM
CCN(CCN(C)C)C(=O)CNCc1cc(/C=N/CCO)ccn1 [Compound 66]	> 2.5 µM	> 2.5 µM
CCN(CC)CCCCNCc1cc(/C=N\CCC2CCCCC2)ccn1 [Compound 67, (2-cyclohexylethyl)-({[2-({[4-(diethylamino)-butyl]amino}methyl)pyridin-4-yl]methylidene})-amine]	> 2.5 µM	> 2.5 µM
CN(C)CC1CCC(CNCc2cc(C=O)ccn2)CC1 (centres unmarked) [Compound 97, 2-{[({4-[(dimethylamino)-methyl]cyclohexyl}-methyl)amino]-methyl}pyridine-4-carbaldehyde]	> 2.5 µM	> 2.5 µM
CN(C)C/C=C/CNCc1cc(C=O)ccn1 [Compound 98, 2-({[(2E)-4-(dimethylamino)but-2-en-1-yl]amino}-methyl)pyridine-4-carbaldehyde]	> 2.5 µM	> 2.5 µM
CN(C)C/C=C\CNCc1cc(C=O)ccn1 [Compound 99, 2-({[(2Z)-4-(dimethylamino)-but-2-en-1-yl]amino}methyl)-pyridine-4-carbaldehyde]	> 2.5 µM	> 2.5 µM
CN1CCC(CNCc2cc(C=O)ccn2)CC1 [Compound 100, 2-({[(1-methyl-piperidin-4-yl)methyl]amino}-methyl)pyridine-4-carbaldehyde]	> 2.5 µM	> 2.5 µM
CCN(CCN(C)C)C(=O)CNCc1cc(C=O)ccn1 [Compound 101]	> 2.5 µM	> 2.5 µM
O=Cc1ccnc(CNCC(=O)N2CCC[C@@H]2CN2CCCC2)c1 [Compound 102, 2-[({2-oxo-2-[(2R)-2-(pyrrolidin-1-ylmethyl)pyrrolidin-1-yl]ethyl}amino)-methyl]pyridine-4-carbaldehyde]	> 2.5 µM	> 2.5 µM
CN1CCN(C(=O)CNCc2cc(C=O)ccn2)CC1 [Compound 103, 2-({[2-(4-methylpiperazin-1-yl)-2-oxoethyl]-amino}methyl)-pyridine-4-carbaldehyde]	> 2.5 µM	> 2.5 µM
CCN1CCCC1CNC(=O)CNCc1cc(C=O)ccn1 (centres unmarked) [Compound 104, N-[(1-ethylpyrrolidin-2-yl)methyl]-2-{[(4-formylpyridin-2-yl)methyl]amino}-acetamide]	> 2.5 µM	> 2.5 µM
CCN(CC)C(=O)CNCc1cc(C=O)ccn1 [Compound 105, N,N-diethyl-2-{[(4-formylpyridin-2-yl)methyl]amino}-acetamide]	> 2.5 µM	> 2.5 µM
O=Cc1ccnc(CNCC(=O)N2CCC(Cc3ccccc3)CC2)c1 [Compound 106, 2-({[2-(4-benzylpiperidin-1-yl)-2-oxoethyl]-amino}methyl)-pyridine-4-carbaldehyde]	> 2.5 µM	> 2.5 µM
CCN(CC)CCCCNCc1cc(C=O)ccn1 [Compound 107, 2-({[4-(diethylamino)-butyl]amino}-methyl)pyridine-4-carbaldehyde]	> 2.5 µM	> 2.5 µM
CN(C)CCCCNCc1cc(C=O)ccn1 [Compound 108, 2-({[4-(dimethylamino)-butyl]amino}methyl)-pyridine-4-carbaldehyde]	> 2.5 µM	> 2.5 µM
CN(C)CCNCc1cc(C=O)ccn1 [Compound 110, 2-({[2-(dimethylamino)-ethyl]amino}methyl)-pyridine-4-carbaldehyde]	> 2.5 µM	> 2.5 µM
O=Cc1ccnc(CNCCCN2CCCC2)c1 [Compound 111, 2-({[3-(pyrrolidin-1-yl)propyl]amino}-methyl)pyridine-4-carbaldehyde]	> 2.5 µM	> 2.5 µM
CCN(CC)CCCCNC(=O)CNCc1cc(C=O)ccn1 [Compound 112, N-[4-(diethylamino)-butyl]-2-{[(4-formylpyridin-2-yl)methyl]amino}-acetamide]	> 2.5 µM	> 2.5 µM
